Source: patent publication US5863948A, “Increasing aqueous humor outflow” (priority 1994, dated 1999)
Counter-ions that a name gives are not always drawn. Like-named read-outs stand apart in the source and are kept apart here. Values belong to the molecule of their own block, whether it stands above or below them.

Legend:
intraocular pressure [1] = assay: Topical instillation, intraocular pressure in rabbits; type: in vivo, Dutch-belted rabbits
Method: (§1) For rabbit experiments Dutch-belted rabbits of either sex weighing 1.5 to 2 kg were used for topical studies. Each animal was randomly assigned one eye for the experimental and the other for its control solution. Intraocular pressure was measured using a Digilab Pneumotonometer. Any animals showing asymmetry of intraocular pressure greater than 2 mm were excluded form the study.
(§2) The protocol was as follows. Baseline intraocular pressure was taken in each eye using 0.5% proparacaine hydrochloride for topical anesthesia. […] In a half hour this was repeated. Two hours later intraocular pressure was measured in each eye. In some animals intraocular pressure was also measured five hours later and all animals had measurement of intraocular pressure the following day.
(§3) Ethacrynic acid powder was dissolved in 3% methylcellulose to yield the desired concentration. […] The solution was refrigerated over night to yield a transparent, viscous fluid. The pH of the solution was determined by mixing one part of the control or experimental solution with five parts of distilled water. […] The 3% methylcellulose solution was refrigerated when not in use.
(§4) Experiments similar to those described above have also been performed using two esters of ethacrynic acid, RCOOCH2 CH2 N(CH2 CH3)2 (hereinafter "ester A") and RCOOCH2 CH2 CH2 N(CH2 CH3)2 (hereinafter "ester B"), where R is [2,3-dichloro-4-(2-methylene-1-oxobutyl)phenoxy]acetate.
(§5) In all these topical experiments 2 drops of the agent were given 5 minutes apart and control eyes were fully sham manipulated. […] However, not all the animals were slit lamped.

eye [2] = assay: Topical instillation, ocular side effects / irritation in rabbits; type: in vivo, Dutch-belted rabbits
Method: as §1, §2, §3, §4, §5

[3] = system: aqueous humor outflow (trabecular meshwork); assay: Two-step constant pressure perfusion of anterior chamber; aqueous humor outflow facility in cynomolgus monkeys in vivo; set-up: species or system cynomologous monkeys
Text: (§6) Ethacrynic acid (sodium salt) was used to increase aqueous humor outflow in cynomologous monkeys, as described below. Ethacrynic acid can be purchased from Merck, Sharp, and Dome, and is described in U.S. Pat. No. 3,255,241, hereby incorporated by reference. Ethacrynic acid has the chemical formula [2,3-dichloro-4-(2-methylene-1-oxobutyl) phenoxy] acetic acid. Any suitable analog described in U.S. Pat. No. 3,255,241 or its ester or amide derivative can also be used as described herein; for example, the following compounds may be used and are available from Allergan, Inc. (Irvine, Calif.), as indicated by the code number below the structure. [drawing 4]
(§7) Each animal was randomly assigned one eye for the experimental and the other for its control perfusion. The animals were fasted the night before the experiment. They were anesthetized intramuscularly with Methohexital Sodium 15 mg/kg and Pentobarbital Sodium 35 mg/kg. Supplemental anesthesia as required was carried out with Pentobarbital 10 mg/kg/hour. Needles were placed through the cornea into the anterior chamber and a two-step constant pressure perfusion method was performed in order to determine aqueous humor outflow facility. The basic medium for perfusion was Dulbecco's phosphate buffered saline with added 5.5 mM glucose. A 10 microliter bolus of the experimental or control solution (that would produce the desired final concentration in the anterior chamber) was injected through a T shaped connector piece in the infusion line.
(§8) Each vial of ethacrynic acid contained ethacrynate sodium powder equivalent to 50 mg of ethacrynic acid. […] The powder was diluted with the above basic medium (Dulbecco's with added glucose) to yield the desired concentration. The solution was mixed at room temperature until dissolved, and the pH was determined (always 7.2) before use; the solution was filtered with a 0.2 micron filter (Nuclepore); this produced a solution which was stable for 24 hours.
The control solution was composed of 9.5 mg sodium chloride (to osmotically balance the experimental solution), 62.5 mg mannitol and 0.1 milliliter thimerosol dissolved in Dulbecco's phosphate buffered saline with 5.5 mM added glucose to yield the desired concentration.
(§9) During perfusion experiments, a 10 microliter bolus injection was made using a Hamilton syringe. Since the monkey anterior chamber is approximately 200 microliters, 10 microliters of 10 mM ethacrynic acid was infused to achieve a final concentration of 0.5 mM ethacrynic acid.
[…] There were at least three animals and separate experiments carried out for each of the concentrations 0.1 MM, 0.25 mM, and 0.5 mM.

Solution stability = type: physicochemical
Method: as §8
Ethacrynic acid powder was dissolved in 3% methylcellulose to yield the desired concentration. The solution was mixed at room temperature for one hour and was stable for 24 hours. A similar osmotically balanced control solution was prepared from methyl cellulose powder dissolved in distilled water using low heat for several hours. The solution was refrigerated over night to yield a transparent, viscous fluid. The pH of the solution was determined by mixing one part of the control or experimental solution with five parts of distilled water. The pH ranged between 6.2 and 6.5 for both the control and experimental solutions. The 3% methylcellulose solution was refrigerated when not in use.

eye [4] = assay: Ocular changes and intraocular pressure after perfusion in monkeys; type: in vivo, cynomologous monkeys
Text: as §6, §7, §8, §9
Experiments were carried out using final ethacrynic acid concentrations in the aqueous humor of 0.1 mM to 0.5 mM. There were at least three animals and separate experiments carried out for each of the concentrations 0.1 MM, 0.25 mM, and 0.5 mM.

Water solubility = type: physicochemical
monkey eye outflow = settings: perfusion at 15 mm Hg and 22° C.; cited from earlier work
[5] = system: calf eye outflow facility; settings: perfusion at 15 mm Hg and 22° C.; cited from earlier work
cornea = assay: Topical application, corneal edema in the monkey (flashlight and slit lamp examination); type: in vivo
Method: as §4
(§10) In the monkey, a significant pressure reduction 24 hours after application of 10 mM ester A was observed (control eyes changing from 17±3 to 21±2 mm Hg versus experimental eyes changing from 19±1 to 5±3 mm Hg; n=6). […] This was detected by flashlight examination and confirmed by slit lamp examination.

intraocular pressure [6] = assay: Topical application, intraocular pressure in the monkey; type: in vivo
Method: as §4
After topical application of 10 mM ester A, a reduction in intraocular pressure in the rabbit was observed. This was most apparent 24 hours after instillation ([…] intraocular pressure changing from 22±3 to 15±2 mm Hg; n=8). In all these topical experiments 2 drops of the agent were given 5 minutes apart and control eyes were fully sham manipulated. […] However, not all the animals were slit lamped.
as §10

Structure (SMILES): C=C(CC)C(=O)c1ccc(OCC(=O)OCCCN(CC)CC)c(Cl)c1Cl [ester B, RCOOCH2 CH2 CH2 N(CH2 CH3)2]
intraocular pressure, experimental eyes (intraocular pressure [1]; 10 mM ester B, 24 hours, from 23±3, control eyes 24±2 to 24±2, n=5): 15±3 mm Hg | signs of irritation (eye [2]; 10 mM ester B, at 24 hours): only minimal if any signs of irritation | slit lamp observation of ocular inflammation (eye [2]; 10 mM ester B, at 24 hours): no slit lamp observations of ocular inflammation

Structure (SMILES): C=C(CC)C(=O)c1ccc(OCC(=O)O)c(Cl)c1Cl [ethacrynic acid, [2,3-dichloro-4-(2-methylene-1-oxobutyl)phenoxy] acetic acid]
response in outflow facility ([3]; 0.25 mM): approximately half the animals perfused responded with a substantial increase in outflow facility | mean increase in fluid outflow facility ([3]; 0.5 mM final concentration in anterior chamber, control perfused eye no change): 140% | increase in outflow facility ([3]; 1.0 mM, one animal, 18% increase in control eye): 355% | effect on outflow facility ([3]; lower dosages (below 0.25 mM)): no effect | stability of solution (Solution stability): 24 h | intraocular pressure after perfusion (eye [4]; a few days after the perfusion experiments): symmetrical and normal in both eyes | dilated pupil (eye [4]; dosages above 0.25 mM, treated eye): some of the animals developed a dilated pupil | chronic corneal edema, opacities or cataract formation (eye [4]; perfusion): no chronic corneal edema or opacities or cataract formation | corneal or crystalline lens changes (eye [4]; perfusion): no apparent corneal or crystalline lens changes | intraocular pressure, treated eye (intraocular pressure [1]; 5 mM in 3% methylcellulose, 2 hours, from 22.4 baseline, control eye 21.5 to 23.1, n=8, p less than 0.01): 19.6 mm Hg | intraocular pressure, treated eye (intraocular pressure [1]; 5 mM in 3% methylcellulose, next day, control eye 22.7): 22.4 mm | intraocular pressure, treated eye (intraocular pressure [1]; 10 mM and 3% methylcellulose, 24 hours, from 23.0 baseline, control eye 22.9 to 24.2, n=14, p less than 0.001): 20.0 mm Hg | conjunctival side effect (eye [2]; 5 mM topical): slight conjunctival infection | other side effects (eye [2]; 5 mM topical): no other side effects noted | conjunctival side effect and irritation (eye [2]; 10 mM topical): moderate conjunctival infection and signs of irritation | resolution of corneal toxicity and inflammation (eye [2]; higher concentrations (above 10 mM)): resolved without apparent sequelae | corneal toxicity and anterior chamber inflammation (eye [2]; higher concentrations (above 10 mM), for several days): signs of corneal toxicity (corneal edema) and anterior chamber inflammation were apparent for several days

Structure (SMILES): C=C(CC)C(=O)c1ccc(OCC(=O)O)c(Cl)c1Cl [sodium salt of ethacrynic acid]
solubility (Water solubility): ~40 mM | stability of solution (Solution stability; Dulbecco's phosphate buffered saline with 5.5 mM glucose, pH 7.2): 24 h

Structure (SMILES): CCN1C(=O)C=CC1=O [NEM, N-ethylmaleimide]
outflow in the monkey eye (monkey eye outflow): increase in outflow | dosage producing a significant increase in the facility of outflow [5]: ≥ 4.7 mM

corneal edema (cornea; 5 mM ester A): corneal edema was likewise apparent
Structure (SMILES): C=C(CC)C(=O)c1ccc(OCC(=O)OCCN(CC)CC)c(Cl)c1Cl [ester A, RCOOCH2 CH2 N(CH2 CH3)2]
corneal edema (cornea; 10 mM ester A): significant corneal edema was also observed in over half of the monkeys | resolution of corneal edema (cornea; ester A topical, all animals): corneal edema ultimately resolved in all animals | pressure reduction (intraocular pressure [6]; 5 mM ester A): no pressure reduction was documented | intraocular pressure, experimental eyes (intraocular pressure [6]; 10 mM ester A, 24 hours, from 19±1, control eyes 17±3 to 21±2, n=6): 5±3 mm Hg | intraocular pressure (intraocular pressure [1]; 10 mM ester A, 24 hours after instillation, from 22±3, n=8, printed as control eye): 15±2 mm Hg | irritation (eye [2]; 5 mM ester A, two rabbits): minimal if any irritation | anterior chamber inflammation (eye [2]; 10 mM ester A): No anterior chamber inflammation was observed | clearing of external irritation of the lid (eye [2]; 10 mM ester A): 24 h | irritation of eyelid, conjunctiva, nictitating membrane (eye [2]; 10 mM ester A): Most of the animals demonstrated some irritation of the eyelid and a few to the conjunctiva and nictitating membrane | corneal changes (eye [2]; 10 mM ester A, not all animals slit lamped): no corneal changes were observed
